Patent US20050148627A1, “Benzopyran compounds for use in the treatment and prevention of inflammation related conditions” (priority 2003, published 2005)
Values joined by “and” are separate entries in the source; they are usually repeats but may differ in a detail not shown here. Identical values can stand only once.

Experiments:
[1] = target: COX-1 (Homo sapiens, UniProt P23219); assay: biochemical
Chain of COX-1 (P23219 24-599): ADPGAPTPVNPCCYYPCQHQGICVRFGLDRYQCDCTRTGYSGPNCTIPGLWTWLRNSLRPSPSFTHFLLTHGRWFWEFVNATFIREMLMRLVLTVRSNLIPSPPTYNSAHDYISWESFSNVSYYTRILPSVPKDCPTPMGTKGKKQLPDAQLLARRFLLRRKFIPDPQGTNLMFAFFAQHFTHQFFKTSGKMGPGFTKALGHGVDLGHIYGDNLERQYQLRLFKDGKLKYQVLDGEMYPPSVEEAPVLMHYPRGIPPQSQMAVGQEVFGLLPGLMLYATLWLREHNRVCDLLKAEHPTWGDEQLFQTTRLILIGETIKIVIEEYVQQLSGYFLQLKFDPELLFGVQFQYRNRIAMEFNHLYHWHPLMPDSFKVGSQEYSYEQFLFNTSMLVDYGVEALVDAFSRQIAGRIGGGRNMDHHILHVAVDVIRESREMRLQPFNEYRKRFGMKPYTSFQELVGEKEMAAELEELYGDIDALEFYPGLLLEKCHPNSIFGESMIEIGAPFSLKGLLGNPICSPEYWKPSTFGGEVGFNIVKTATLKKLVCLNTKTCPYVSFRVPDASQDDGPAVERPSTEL
Description: Evaluation of COX-1 and COX-2 Activity In Vitro
b. Assay for COX-1 and COX-2 Activity
COX activity was assayed as PGE2 formed/μg protein/time using an ELISA to detect the prostaglandin released. CHAPS-solubilized insect cell membranes containing the appropriate COX enzyme were incubated in a potassium phosphate buffer (50 mM, pH 8.0) containing epinephrine, phenol, and heme with the addition of arachidonic acid (10 μM). Compounds were pre-incubated with the enzyme for 10-20 minutes prior to the addition of arachidonic acid. […] The PGE2 formed was measured by standard ELISA technology (Cayman Chemical).

Row | Compound | melting point | IC50 [1]
1 | O=C(O)C1=Cc2c(ccc(Cl)c2-c2ccsc2)OC1C(F)(F)F (centres unmarked) [Example 868, 6-Chloro-5-thien-3-yl-2-(trifluoromethyl)-2H-chromene-3-carboxylic acid] | 211 to 213.5 °C | –
2 | CC(C)c1cccc(-c2c(Cl)ccc3c2C=C(C(=O)O)C(C(F)(F)F)O3)c1 (centres unmarked) [Example 871, 6-Chloro-5-(3-isopropylphenyl)-2-(trifluoromethyl)-2H-chromene-3-carboxylic acid] | 184 to 186.5 °C | –
3 | O=C(O)C1=Cc2c(ccc3occ(-c4ccc(Br)cc4)c23)OC1C(F)(F)F (centres unmarked) [Example 922, 1-Para-bromophenyl-7-(trifluoromethyl)-7H-furo[3,2-f]chromene-8-carboxylic acid] | > 250 °C | –
4 | Nc1c(Cl)ccc2c1C=C(C(=O)O)C(C(F)(F)F)O2 (centres unmarked) [Example 876, 5-Amino-6-chloro-2-(trifluoromethyl)-2H-chromene-3-carboxylic acid] | 208.5 to 210 °C | –
5 | CCc1ccc(Oc2cc3c(cc2Cl)C=C(C(=O)O)[C@@H](C(F)(F)F)O3)cc1 (single isomer, unassigned) [Example 939] | 90 to 95 °C | –
6 | CCCC#Cc1cc(OC(F)(F)F)cc2c1OC(C(F)(F)F)C(C(=O)O)=C2 (centres unmarked) [Example 21e, 8-pent-1-ynyl-6-(trifluoromethoxy)-2-(trifluoromethyl)-2H-chromene-3-carboxylic acid] | – | 6.52 µM and 3.06 µM
7 | CC1CC(C)CN(c2cc3c(cc2Cl)C=C(C(=O)O)C(C(F)(F)F)O3)C1 (centres unmarked) [Example 8a, 6-chloro-7-(3,5-dimethylpiperidin-1-yl)-2-(trifluoromethyl)-2H-chromene-3-carboxylic acid] | – | > 100 µM and 57.2 µM
8 | CCCc1cc(OC(F)(F)F)cc2c1OC(C(F)(F)F)C(C(=O)O)=C2 (racemic) [Example 21i, 8-propyl-6-(trifluoromethoxy)-2-(trifluoromethyl)-2H-chromene-3-carboxylic acid] | – | 20.5 µM and 13.6 µM
9 | Cc1c(OCC(C)C)c(Cl)cc2c1OC(C(F)(F)F)C(C(=O)O)=C2 (centres unmarked) [Example 3e, 6-chloro-7-isobutoxy-8-methyl-2-(trifluoromethyl)-2H-chromene-3-carboxylic acid] | – | < 0.137 µM
10 | CCN(CC)c1cc2c(cc1Cl)C=C(C(=O)O)C(C(F)(F)F)O2 (centres unmarked) [Example 8l, 6-chloro-7-(diethylamino)-2-(trifluoromethyl)-2H-chromene-3-carboxylic acid] | – | > 33.3 µM and > 11.1 µM and 180 µM and > 100 µM
11 | CC(C)c1cc2c(cc1Cl)C(Cl)=C(C(=O)O)C(C(F)(F)F)O2 (centres unmarked) [Example 9g, 4,6-dichloro-7-isopropyl-2-(trifluoromethyl)-2H-chromene-3-carboxylic acid] | – | 24.2 µM and 25.1 µM
12 | CC#Cc1cc(OC(F)(F)F)cc2c1OC(C(F)(F)F)C(C(=O)O)=C2 (centres unmarked) [Example 21d, 8-prop-1-ynyl-6-(trifluoromethoxy)-2-(trifluoromethyl)-2H-chromene-3-carboxylic acid] | – | 0.182 µM
13 | CCc1ccc2c(c1)C=C(C(=O)O)C(C(F)(F)F)O2 (stereo in doubt) [Example 34c, (2R)-6-ethyl-2-(trifluoromethyl)-2H-chromene-3-carboxylic acid] | – | > 100 µM
14 | N#Cc1cc(OC(F)(F)F)cc2c1OC(C(F)(F)F)C(C(=O)O)=C2 (centres unmarked) [Example 21p, 8-cyano-6-(trifluoromethoxy)-2-(trifluoromethyl)-2H-chromene-3-carboxylic acid] | – | 39.2 µM
15 | O=C(O)C1=Cc2cccc(Oc3ccc([N+](=O)[O-])cc3F)c2OC1C(F)(F)F (centres unmarked) [Example 25a, 8-(2-fluoro-4-nitrophenoxy)-2-(trifluoromethyl)-2H-chromene-3-carboxylic acid] | – | > 500 µM
16 | CCC(CC)COc1c(Cl)cc2c(c1C)OC(C(F)(F)F)C(C(=O)O)=C2 (centres unmarked) [Example 3b, 6-chloro-7-(2-ethylbutoxy)-8-methyl-2-(trifluoromethyl)-2H-chromene-3-carboxylic acid] | – | 15.8 µM and 6.7 µM
17 | COc1cccc(Cc2ccc3c(c2)OC(C(F)(F)F)C(C(=O)O)=C3)c1 (centres unmarked) [Example 9w, 7-(3-methoxybenzyl)-2-(trifluoromethyl)-2H-chromene-3-carboxylic acid] | – | > 100 µM
18 | COc1ccc2c(c1C)OC(C(F)(F)F)C(C(=O)O)=C2 (centres unmarked) [Example 5c, 7-methoxy-8-methyl-2-(trifluoromethyl)-2H-chromene-3-carboxylic acid] | – | > 100 µM and 478 µM
19 | CC1CCN(c2cc3c(cc2Cl)C=C(C(=O)O)C(C(F)(F)F)O3)CC1 (centres unmarked) [Example 8d, 6-chloro-7-(4-methylpiperidin-1-yl)-2-(trifluoromethyl)-2H-chromene-3-carboxylic acid] | – | > 100 µM
20 | CC(C)(C)Oc1ccc2c(c1)OC(C(F)(F)F)C(C(=O)O)=C2 (centres unmarked) [Example 5b, 7-tert-butoxy-2-(trifluoromethyl)-2H-chromene-3-carboxylic acid] | – | > 500 µM
21 | CCCCCc1cc(OC(F)(F)F)cc2c1OC(C(F)(F)F)C(C(=O)O)=C2 (centres unmarked) [Example 21j, 8-pentyl-6-(trifluoromethoxy)-2-(trifluoromethyl)-2H-chromene-3-carboxylic acid] | – | 40.4 µM
22 | Cc1ccc(Cc2cc3c(cc2Cl)C=C(C(=O)O)C(C(F)(F)F)O3)c(C)c1Cl (centres unmarked) [Example 9u, 6-chloro-7-(3-chloro-2,4-dimethylbenzyl)-2-(trifluoromethyl)-2H-chromene-3-carboxylic acid] | – | 5.52 µM

Row | Compound | melting point | IC50 [1]
23 | CCCCSc1cc2c(cc1Cl)C=C(C(=O)O)C(C(F)(F)F)O2 (centres unmarked) [Example 7f, 7-(butylthio)-6-chloro-2-(trifluoromethyl)-2H-chromene-3-carboxylic acid] | – | 70.8 µM
24 | CCc1cc(OC(F)(F)F)cc2c1O[C@@H](C(F)(F)F)C(C(=O)O)=C2 (single isomer, unassigned) [Example 21l] | – | > 100 µM and 115 µM and 49.6 µM
25 | CCCOc1cccc2c1OC(C(F)(F)F)C(C(=O)O)=C2 (centres unmarked) [Example 25e, 8-propoxy-2-(trifluoromethyl)-2H-chromene-3-carboxylic acid] | – | > 100 µM
26 | Cc1c(Cc2ccccc2)c(Cl)cc2c1OC(C(F)(F)F)C(C(=O)O)=C2 (centres unmarked) [Example 14a, 7-benzyl-6-chloro-8-methyl-2-(trifluoromethyl)-2H-chromene-3-carboxylic acid] | – | < 0.137 µM
27 | Cc1cc2c(cc1Cc1ccccc1)OC(C(F)(F)F)C(C(=O)O)=C2 (centres unmarked) [Example 42a, 7-benzyl-6-methyl-2-(trifluoromethyl)-2H-chromene-3-carboxylic acid] | – | 28.7 µM and 25.2 µM and 14.7 µM
28 | O=C(O)C1=Cc2cc(Cl)c(I)c(Cl)c2OC1C(F)(F)F (centres unmarked) [Example 22, 6,8-dichloro-7-iodo-2-(trifluoromethyl)-2H-chromene-3-carboxylic acid] | – | > 1 µM and 25.6 µM and 12.4 µM
29 | CCCC(C)(C)c1cc2c(cc1Cl)C=C(C(=O)O)C(C(F)(F)F)O2 (centres unmarked) [Example 111, 6-chloro-7-(1,1-dimethylbutyl)-2-(trifluoromethyl)-2H-chromene-3-carboxylic acid] | – | 9.16 µM and 9.17 µM
30 | O=C(O)C1=Cc2c(cc3c(c2Cl)OCO3)OC1C(F)(F)F (centres unmarked) [Example 119, 9-chloro-6-(trifluoromethyl)-6H-[1,3]dioxolo[4,5-g]chromene-7-carboxylic acid] | – | > 500 µM
31 | CC(C)(C(=O)O)c1cc2c(cc1Cl)C=C(C(=O)O)C(C(F)(F)F)O2 (centres unmarked) [Example 115, 7-(1-carboxy-1-methylethyl)-6-chloro-2-(trifluoromethyl)-2H-chromene-3-carboxylic acid] | – | > 100 µM
32 | COc1c(Cl)c(Cl)c(C)c2c1OC(C(F)(F)F)C(C(=O)O)=C2 (centres unmarked) [Example 29, 6,7-dichloro-8-methoxy-5-methyl-2-(trifluoromethyl)-2H-chromene-3-carboxylic acid] | – | > 100 µM and 217 µM
33 | Nc1ccc(Oc2cccc3c2OC(C(F)(F)F)C(C(=O)O)=C3)c(F)c1 (centres unmarked) [Example 25b, 8-(4-amino-2-fluorophenoxy)-2-(trifluoromethyl)-2H-chromene-3-carboxylic acid] | – | < 0.686 µM and < 0.137 µM and 0.14 µM
34 | O=C(O)C1=Cc2cc(Cl)c(Cc3ccccc3)cc2O[C@@H]1C(F)(F)F (single isomer, unassigned) [Example 9m] | – | 24.1 µM
35 | O=C(O)C1=Cc2cc(-c3ccc(F)cc3)ccc2NC1C(F)(F)F (centres unmarked) [Example 48, 6-(4-fluorophenyl)-2-(trifluoromethyl)-1,2-dihydroquinoline-3-carboxylic acid] | – | 42.7 µM
36 | COc1c(Cl)c(Cl)c(Br)c2c1OC(C(F)(F)F)C(C(=O)O)=C2 (centres unmarked) [Example 30, 5-bromo-6,7-dichloro-8-methoxy-2-(trifluoromethyl)-2H-chromene-3-carboxylic acid] | – | 193 µM and > 100 µM
37 | O=C(O)C1=Cc2cc(Cl)c(O)c(Cl)c2OC1C(F)(F)F (centres unmarked) [Example 1a, 6,8-dichloro-7-hydroxy-2-(trifluoromethyl)-2H-chromene-3-carboxylic acid] | – | > 500 µM
38 | CCCCOc1cccc2c1OC(C(F)(F)F)C(C(=O)O)=C2 (centres unmarked) [Example 25f, 8-butoxy-2-(trifluoromethyl)-2H-chromene-3-carboxylic acid] | – | > 100 µM
39 | CC(C)CN(C)c1c(Cl)cc2c(c1Cl)OC(C(F)(F)F)C(C(=O)O)=C2 (centres unmarked) [Example 38a, 6,8-dichloro-7-[isobutyl(methyl)amino]-2-(trifluoromethyl)-2H-chromene-3-carboxylic acid] | – | < 0.137 µM
40 | O=C(O)C1=Cc2cc(Cl)c(N3CCC3)cc2OC1C(F)(F)F (centres unmarked) [Example 8j, 7-azetidin-1-yl-6-chloro-2-(trifluoromethyl)-2H-chromene-3-carboxylic acid] | – | > 100 µM
41 | Cc1c(OCC(C)(C)C)c(Cl)cc2c1OC(C(F)(F)F)C(C(=O)O)=C2 (centres unmarked) [Example 3g, 6-chloro-8-methyl-7-(neopentyloxy)-2-(trifluoromethyl)-2H-chromene-3-carboxylic acid] | – | 74.4 µM and 81.2 µM
42 | COc1ccc(Cc2cc3c(cc2Cl)C=C(C(=O)O)C(C(F)(F)F)O3)cc1Cl (centres unmarked) [Example 9r, 6-chloro-7-(3-chloro-4-methoxybenzyl)-2-(trifluoromethyl)-2H-chromene-3-carboxylic acid] | – | 80.8 µM
43 | Cc1c(OCC2CC2)c(Cl)cc2c1OC(C(F)(F)F)C(C(=O)O)=C2 (centres unmarked) [Example 3d, 6-chloro-7-(cyclopropylmethoxy)-8-methyl-2-(trifluoromethyl)-2H-chromene-3-carboxylic acid] | – | < 0.137 µM
44 | Cc1c(OCCC(C)C)c(Cl)cc2c1OC(C(F)(F)F)C(C(=O)O)=C2 (centres unmarked) [Example 3h, 6-chloro-7-(isopentyloxy)-8-methyl-2-(trifluoromethyl)-2H-chromene-3-carboxylic acid] | – | 17 µM and 18.5 µM and 18.4 µM
